Assay results from patent US7384911B2, “Peptides having antimicrobial properties and compositions containing them, notably for the preservation of foodstuffs” (priority 2002, dated 2008).
Where two headings read alike, the source gives them in different places. Residues, ends and D or L forms follow the SMILES beside them.

Columns and labels:
[1] = test system: E. coli 1106; format: cell-based, Escherichia coli; conditions: interval [a]-[b], tested spheniscin-2 0.2-100 μM, MSI-94 0.2-10 μM
Protocol: The bacteria to be tested were suspended in a suitable nutritive medium of the “poor broth” type corresponding to a solution of bactotryptone at 10 g/l with the addition of NaCl 5 g/l in ultrapure water.
Antimicrobial activities were detected by a growth inhibition test in microtitration plates (Hétru and Bulet, 1997). One deposited […] of each fraction collected in mictrotitration plates in the presence of 90 μl of culture medium containing the microorganisms (at a final concentration equivalent to 1 mDO at 600 nm).
For the bacteria and the yeast, incubation was performed at 30° C. for 12-24 h under agitation. The growth of the microorganisms was measured by monitoring the absorbance at 600 nm by means of a spectrophotometer reader of microtitration plates.
The antimicrobial activities expressed in minimal inhibitory concentration (MIC) of spheniscin 2 (concentrations comprised between 0.2 μM and 100 μM) were determined against bacteria, yeasts and fungi using a growth inhibition test in liquid medium in microtitration plates (for the detailed protocol see example 2.4 as well as Hétru and Bulet, 1997). […]

[2] = test system: Pseudomonas aeruginosa; format: cell-based
Protocol: (§1) Strains of microorganisms capable of growing at such pH values were selected in advance: these were Pseudomonas aeruginosa and Escherichia coli 1106 (Gram-negative bacteria). The tests of antimicrobial activity were performed in liquid medium in microtitration plates (for the detailed protocol see example 2.4 as well as Hétru and Bulet, 1997). The pH of the liquid medium used was adjusted with hydrochloric acid for each test.
(§2) Two strains of Gram-negative bacteria (Pseudomonas aeruginosa and Escherichia coli 1106) capable of growing in the range of pH values to be tested were selected. The range of pH values tested corresponded to the pH variations observed in the well preserved stomach content of the incubating king penguin (Thouzeau et al., 2003).

[3] = test system: Escherichia coli 1106; format: cell-based
Protocol: as §1, §2

[4] = test system: B. cereus ATCC 11778; test: Bactericidal or bacteriostatic effect, spreading on Petri dishes and counting colonies; format: cell-based, Bacillus cereus; conditions: colonies counted after 24 h of incubation, Yes/No
Protocol: (§3) The bactericidal or bacteriostatic effect of the peptide was determined by spreading on Petri dishes and counting the colonies present after 24 h of incubation.

[5] = test system: E. coli 1106; test: as above; format: cell-based, Escherichia coli; conditions: colonies counted after 24 h of incubation, Yes/No
Protocol: as §3

[6] = test system: Staphylococcus aureus; test: as above; format: cell-based; conditions: colonies counted after 24 h of incubation, Yes/No
Protocol: as §3

[7] = test system: Salmonella typhimurium; test: as above; format: cell-based; conditions: colonies counted after 24 h of incubation, Yes/No
Protocol: as §3

[8] = test system: Pseudomonas aeruginosa ATCC 82118; test: as above; format: cell-based; conditions: colonies counted after 24 h of incubation, Yes/No
Protocol: as §3

[9] = test system: Micrococcus luteus; test: as above; format: cell-based; conditions: colonies counted after 24 h of incubation, Yes/No
Protocol: as §3

[10] = test system: Bacillus subtilis; test: as above; format: cell-based; conditions: colonies counted after 24 h of incubation, Yes/No
Protocol: as §3

[11] = test system: B. megaterium; test: as above; format: cell-based; conditions: colonies counted after 24 h of incubation, Yes/No
Protocol: as §3

[12] = test system: Vibrio metshnikovii NCTC 8483; test: as above; format: cell-based; conditions: colonies counted after 24 h of incubation, Yes/No
Protocol: as §3

[13] = test system: S. haemolyticus; test: as above; format: cell-based; conditions: colonies counted after 24 h of incubation, Yes/No
Protocol: as §3

[14] = test system: Nocardia asteroides; test: as above; format: cell-based; conditions: colonies counted after 24 h of incubation, Yes/No
Protocol: as §3

[15] = test system: Escherichia coli SBS 363; test: as above; format: cell-based; conditions: colonies counted after 24 h of incubation, Yes/No
Protocol: as §3

[16] = test system: V. anguillarum ATCC 19264; test: as above; format: cell-based; conditions: colonies counted after 24 h of incubation, Yes/No
Protocol: as §3

[17] = test system: Klebsiella pneumoniae; test: as above; format: cell-based; conditions: colonies counted after 24 h of incubation, Yes/No
Protocol: as §3

[18] = test system: S. saprophyticus; test: as above; format: cell-based, Staphylococcus saprophyticus; conditions: colonies counted after 24 h of incubation, Yes/No
Protocol: as §3

CC[C@H](C)[C@@H]1NC(=O)[C@@H]2CCCN2C(=O)[C@H]([C@@H](C)CC)NC(=O)[C@H](CO)NC(=O)[C@@H]2CCCN2C(=O)[C@H](Cc2ccccc2)NC(=O)[C@H](CCCNC(=N)N)NC(=O)[C@@H]2CSSC[C@@H](C(=O)N[C@@H](CCCNC(=N)N)C(=O)N[C@@H](CCCNC(=N)N)C(=O)N[C@H](C(=O)N[C@@H](Cc3c[nH]c4ccccc34)C(=O)O)C(C)C)NC(=O)[C@@H]3CSSC[C@H](NC(=O)[C@H](CC(C)C)NC(=O)CNC(=O)[C@H](Cc4ccccc4)NC(=O)[C@@H](N)CO)C(=O)N[C@@H](CCCNC(=N)N)C(=O)N[C@@H](CC(C)C)C(=O)N[C@@H](CCCNC(=N)N)C(=O)N[C@@H](CCCNC(=N)N)C(=O)NCC(=O)N[C@@H](Cc4ccccc4)C(=O)N[C@@H](CSSC[C@H](NC(=O)[C@H](CCCNC(=N)N)NC(=O)CNC1=O)C(=O)N[C@@H](CO)C(=O)N[C@@H](CCCNC(=N)N)C(=O)N[C@@H](Cc1ccccc1)C(=O)N[C@@H](C(C)C)C(=O)N[C@@H](CCC(N)=O)C(=O)N3)C(=O)N[C@@H](C)C(=O)N[C@@H](CCCNC(=N)N)C(=O)NCC(=O)N[C@@H](CCCNC(=N)N)C(=O)N2 [spheniscin-2] (HELM PEPTIDE1{S.F.G.L.C.R.L.R.R.G.F.C.A.R.G.R.C.R.F.P.S.I.P.I.G.R.C.S.R.F.V.Q.C.C.R.R.V.W}$PEPTIDE1,PEPTIDE1,5:R3-33:R3|PEPTIDE1,PEPTIDE1,12:R3-27:R3|PEPTIDE1,PEPTIDE1,17:R3-34:R3$$$V2.0; N-terminus and C-terminus assumed)
25 to 50 µM: MIC (μM) after 48 h of incubation ([3]; pH 5.2)
No: Bactericidal effect of spheniscin-2 [7] | Bactericidal effect of spheniscin-2 [8] | Bactericidal effect of spheniscin-2 [15] | Bactericidal effect of spheniscin-2 [16] | Bactericidal effect of spheniscin-2 [17] | Bactericidal effect of spheniscin-2 [18]
>100 µM: MIC (μM) after 48 h of incubation ([2]; pH 4.2)
Yes: Bactericidal effect of spheniscin-2 [4] | Bactericidal effect of spheniscin-2 [5] | Bactericidal effect of spheniscin-2 [6] | Bactericidal effect of spheniscin-2 [9] | Bactericidal effect of spheniscin-2 [10] | Bactericidal effect of spheniscin-2 [11] | Bactericidal effect of spheniscin-2 [12] | Bactericidal effect of spheniscin-2 [13] | Bactericidal effect of spheniscin-2 [14]
1.5 to 3 µM: MIC [1] | MIC (μM) after 48 h of incubation ([3]; pH 7.2)
6 to 12 µM: MIC (μM) after 48 h of incubation ([2]; pH 7.2) | MIC (μM) after 48 h of incubation ([3]; pH 4.2) | MIC (μM) after 48 h of incubation ([3]; pH 6.1)
